Legend:
[1] = system: TT; conditions: TT cell line; 120 hours incubation
Description: (§1) All cell lines were obtained from the American Type Culture Collection (ATCC) Manassas, Va. (US). Master and working cell banks (MCB and WCB) were prepared by subculturing in ATCC-recommended media and freezing protocols (www.atcc.org). Cell line stocks for the assays were prepared from the WCB. The MCB, WCBs and assay stocks were prepared within respectively 3, 6 and 9 passages of the ATCC vial.
(§2) Solid powders of reference compounds were weighed on a calibrated balance and dissolved in 100% DMSO. DMSO samples were stored at room temperature. At the day of the experiment, the compound stock was diluted in 3.16 fold steps in 100% DMSO to obtain a 9-point dilution series. This was further diluted 31.6 times in 20 mM sterile Hepes buffer pH 7.4. A volume of 5 μl was transferred to the cells to generate a test concentration range from 3.16×10^−5M to 3.16×10^−9 M in duplicate. The final DMSO concentration during incubation was […] in all wells.
(§3) An assay stock was thawed and diluted in its ATCC recommended medium and dispensed in a 384-well plate, depending on the cell line used, at a concentration of 200-3200 cells per well in 45 μl medium. For each used cell line the optimal cell density is used. The margins of the plate were filled with phosphate-buffered saline. Plated cells were incubated in a humidified atmosphere of 5% CO2 at 37° C. After 24 hours, 5 μl of compound dilution was added and plates were further incubated for another 120 hours. After 120 hours, 25 μl of ATPlite 1Step™ (PerkinElmer) solution was added to each well, and subsequently shaken for 2 minutes. After 10 minutes of incubation in the dark, the luminescence was recorded on an Envision multimode reader (PerkinElmer).
(§4) IC50s were calculated by non-linear regression using IDBS XLfit 5. The percentage growth after 120 h (%-growth) was calculated as follows: 100%×(luminescencet=120h/luminescenceuntreated,t=120h). This was fitted to the ^10log compound concentration (conc) by a 4-parameter logistics curve: %−growth=bottom+(top−bottom)/(1+10^(log IC50-conc)*hill)), where hill is the Hill-coefficient, and bottom and top the asymptotic minimum and maximum cell growth that the compound allows in that assay.

[2] = system: NCI-H460; assay: Cell proliferation assay (ATPlite), drug with vs without cobicistat; format: cell-based; conditions: NCI-H460 cell line; 120 hours incubation
In short: (§5)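 Growth inhibition assay: cells (200–3200/well) pre-incubated 24 h, exposed 120 h to compound at 3.16×10^−5–3.16×10^−9 M with 0.4% DMSO throughout. Viability by ATPlite luminescence; IC50 from %-growth curve fitting.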

[3] = system: Jurkat E6.1; assay: as above; format: cell-based; conditions: Jurkat E6.1 cell line; 120 hours incubation
In short: as §5

[4] = system: COLO 829; assay: as above; format: cell-based; conditions: COLO 829 cell line; 120 hours incubation
In short: as §5

[5] = system: RKO; assay: as above; format: cell-based; conditions: RKO cell line; 120 hours incubation
In short: as §5

[6] = system: LS 174T; assay: as above; format: cell-based; conditions: LS 174T cell line; 120 hours incubation
In short: as §5

[7] = system: cell lines tested; assay: Cell proliferation assay, summary across all cell lines and drugs; format: cell-based; conditions: comparison among the six primary drugs
Description: as §1, §2, §3, §4

SMILES: Cc1nc(Nc2ncc(C(=O)Nc3c(C)cccc3Cl)s2)cc(N2CCN(CCO)CC2)n1 [dasatinib]
- Fold change in IC50 (IC50 [Drug + Cobicistat]/IC50 [Drug]) [1]: 0.8 fold

SMILES: CC(=O)O[C@@]12CO[C@@H]1C[C@H](O)[C@@]1(C)C(=O)[C@H](O)C3=C(C)[C@@H](OC(=O)[C@H](O)[C@@H](NC(=O)OC(C)(C)C)c4ccccc4)C[C@@](O)([C@@H](OC(=O)c4ccccc4)[C@H]21)C3(C)C [docetaxel]
- Fold change in IC50 (IC50 [Drug + Cobicistat]/IC50 [Drug]) [2]: 2.1 fold
- Fold change in IC50 (IC50 [Drug + Cobicistat]/IC50 [Drug]) [3]: 2.2 fold
- Fold change in IC50 (IC50 [Drug + Cobicistat]/IC50 [Drug]) [4]: 3.7 fold
- Fold change in IC50 (IC50 [Drug + Cobicistat]/IC50 [Drug]) [5]: 3.8 fold
- Fold change in IC50 (IC50 [Drug + Cobicistat]/IC50 [Drug]) [6]: 2.8 fold
- Fold change in IC50 (IC50 [Drug + Cobicistat]/IC50 [Drug]) [1]: 3.6 fold
- extent of boosting by cobicistat [7]: boosted to the greatest extent

SMILES: COc1cccc2c1C(=O)c1c(O)c3c(c(O)c1C2=O)C[C@@](O)(C(=O)CO)C[C@@H]3O[C@H]1C[C@H](N)[C@H](O)[C@H](C)O1 [doxorubicin]
- Fold change in IC50 (IC50 [Drug + Cobicistat]/IC50 [Drug]) [2]: 2.0 fold
- Fold change in IC50 (IC50 [Drug + Cobicistat]/IC50 [Drug]) [3]: 2.5 fold
- Fold change in IC50 (IC50 [Drug + Cobicistat]/IC50 [Drug]) [4]: 3.8 fold
- Fold change in IC50 (IC50 [Drug + Cobicistat]/IC50 [Drug]) [5]: 2.9 fold
- Fold change in IC50 (IC50 [Drug + Cobicistat]/IC50 [Drug]) [6]: 3.6 fold
- Fold change in IC50 (IC50 [Drug + Cobicistat]/IC50 [Drug]) [1]: 1.1 fold

SMILES: CC(=O)O[C@H]1C(=O)[C@@]2(C)[C@H]([C@H](OC(=O)c3ccccc3)[C@]3(O)C[C@H](OC(=O)[C@H](O)[C@@H](NC(=O)c4ccccc4)c4ccccc4)C(C)=C1C3(C)C)[C@]1(OC(C)=O)CO[C@@H]1C[C@@H]2O [paclitaxel]
- Fold change in IC50 (IC50 [Drug + Cobicistat]/IC50 [Drug]) [2]: 2.0 fold
- Fold change in IC50 (IC50 [Drug + Cobicistat]/IC50 [Drug]) [3]: 2.5 fold
- Fold change in IC50 (IC50 [Drug + Cobicistat]/IC50 [Drug]) [4]: 4.1 fold
- Fold change in IC50 (IC50 [Drug + Cobicistat]/IC50 [Drug]) [5]: 3.3 fold
- Fold change in IC50 (IC50 [Drug + Cobicistat]/IC50 [Drug]) [6]: 1.8 fold
- Fold change in IC50 (IC50 [Drug + Cobicistat]/IC50 [Drug]) [1]: 3.0 fold

SMILES: CC[C@]1(O)C[C@@H]2CN(CCc3c([nH]c4ccccc34)[C@@](C(=O)OC)(c3cc4c(cc3OC)N(C)[C@H]3[C@@](O)(C(=O)OC)[C@H](OC(C)=O)[C@]5(CC)C=CCN6CC[C@]43[C@@H]65)C2)C1 [vinblastine]
- Fold change in IC50 (IC50 [Drug + Cobicistat]/IC50 [Drug]) [2]: 3.4 fold
- Fold change in IC50 (IC50 [Drug + Cobicistat]/IC50 [Drug]) [3]: 2.5 fold
- Fold change in IC50 (IC50 [Drug + Cobicistat]/IC50 [Drug]) [4]: 6.3 fold
- Fold change in IC50 (IC50 [Drug + Cobicistat]/IC50 [Drug]) [5]: 3.6 fold
- Fold change in IC50 (IC50 [Drug + Cobicistat]/IC50 [Drug]) [6]: 3.4 fold
- Fold change in IC50 (IC50 [Drug + Cobicistat]/IC50 [Drug]) [1]: 8.7 fold
- extent of boosting by cobicistat [7]: boosted to the greatest extent

SMILES: CC[C@]1(O)C[C@H]2CN(CCc3c([nH]c4ccccc34)[C@@](C(=O)OC)(c3cc4c(cc3OC)N(C=O)[C@H]3[C@@](O)(C(=O)OC)[C@H](OC(C)=O)[C@]5(CC)C=CCN6CC[C@]43[C@@H]65)C2)C1 [vincristine]
- Fold change in IC50 (IC50 [Drug + Cobicistat]/IC50 [Drug]) [2]: 3.1 fold
- Fold change in IC50 (IC50 [Drug + Cobicistat]/IC50 [Drug]) [3]: 2.8 fold
- Fold change in IC50 (IC50 [Drug + Cobicistat]/IC50 [Drug]) [4]: 4.4 fold
- Fold change in IC50 (IC50 [Drug + Cobicistat]/IC50 [Drug]) [5]: 3.7 fold
- Fold change in IC50 (IC50 [Drug + Cobicistat]/IC50 [Drug]) [6]: 2.5 fold
- Fold change in IC50 (IC50 [Drug + Cobicistat]/IC50 [Drug]) [1]: 4.8 fold
- extent of boosting by cobicistat [7]: boosted to the greatest extent

Reference: US20180036289A1 (Gilead Sciences, Inc., priority 2016, published 2018)
